Data as given in patent US20080103191A1, “ENTACAPONE-DERIVATIVES” (priority 2006, published 2008).
Values after ≈ are worked out from the molar mass of the structure shown. Where two headings read alike, the source gives them in different places.

Key:
[1] = Stability of TPGS/PG formulations in simulated gastric fluid (precipitate formation); type: physicochemical; settings: for Precipitate formation, directly after addition: 1.0 mL TPGS/PG solution added to 10 mL SGF, visual inspection; for Precipitate formation, 24 h: TPGS/PG solution in SGF
Method: (§1) Simulated gastric fluid (SGF) is prepared as follows. 200 mg NaCl are dissolved in 70 mL H2O. 0.7 mL concentrated HCl is added. Subsequently, 320 mg of pepsin powder is added, and the mixture is filled up to 100 mL with H2O. A clear solution is obtained (pH 1-2).
2 mL TPGS/PG is added to 5-6 mg of the respective compound of formula I, and the obtained solutions are shaken for 5 h. […] 1.0 mL of the centrifuged solution is added drop-wise to 10 mL SGF. Precipitate formation is determined by visual inspection of each solution immediately after addition of the solution comprising the respective compound of formula I in TPGS/PG to SGF and after 24 hours.

[2] = Stability of Labrasol formulations in simulated gastric fluid (precipitate formation); type: physicochemical; settings: for Precipitate formation, directly after addition: 3 mg in 1.5 mL Labrasol added to 10 mL SGF, visual inspection; for Precipitate formation, 5 min / Precipitate formation, 15 min / Precipitate formation, 30 min / Precipitate formation, 60 min / Precipitate formation, 24 h: Labrasol solution in SGF
Method: as §1
1.5 mL of Labrasol® is added to 3 mg of the respective compound of formula I, and the obtained solutions are shaken. Subsequently, each of the solutions is added to 10 mL SGF by drop-wise addition. Precipitate formation is determined by visual inspection of each solution immediately after the addition of the solution comprising the respective compound of formula I in Labrasol® to SGF and after 5, 15, 30, and 60 min, and 24 h.

[3] = Stability in TPGS/PG over 22 h; type: physicochemical; settings: for Amount of compound: TPGS/PG, ambient temperature; for Amount of entacapone: entacapone formed in TPGS/PG
Method: The stability of selected compounds of formula I in TPGS/PG over 22 h is tested by the following procedure: […]
37.5 mg of compounds 15, 35 and 57, respectively […] of compound 63, are in each case added to 25 mL of TPGS/PG (25% by weight of TPGS, 75% by weight of PG) (concentration of compounds 15, 35, 57:1.5 mg/mL; concentration of compound 63:1.4 mg/mL). Each formulation obtained is stirred for 22 h at ambient temperature. The amount of the respective compound of formula I and the amount of entacapone are determined after 5 h, 8 h, 11 h, and 22 h by HPLC assay. Reversed phase gradient HPLC method, column YMC Pro C8, 50 mm×4.0 mm, 3 μm, Eluent A: Water:trifluoroacetic acid (100:0.5 (v/v)), Eluent B: Acetonitrile:trifluoroacetic acid (100:0.5 (v/v)). Column temperature 30° C., Flow rate 3.0 mL/min, Detection wavelength: 220 nm

[4] = Solubility in 0.1 N HCl, PBS buffer, FaSSIF and FeSSIF; type: physicochemical; settings: thermodynamic from solid
Outline: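 Excess compound was shaken for 10 min at ambient temperature in 0.1 N HCl (pH 1), PBS (pH 7.4), FaSSIF (pH 6.5) or FeSSIF (pH 5.0). After centrifugation, the dissolved concentration was measured by reversed-phase HPLC with UV detection at 220 nm.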

[5] = Plasma stability ex vivo; type: in vitro ADME; settings: human plasma, 37° C., read-out: t1/2 plasma
Method: Plasma stability is determined in human and rat plasma ex vivo. For the determination of the plasma stability of the compounds of formula I, the test compounds were incubated with human plasma (c=5 μg/mL) at 37° C. for certain time intervals up to 60, resp. 120 min (depending on the compound). Afterwards the incubations were stopped by equivalent addition of acetonitrile for protein precipitation, and the samples were mixed and centrifuged. The supernatants were adequately diluted and analyzed by HPLC with UV detection at 305 nm.
The degradation of the compounds of formula I as well as the formation of the active drug entacapone were monitored, and the half-life times of the compounds of formula I were calculated from the obtained peak areas.

[6] = 5 h, start 1.5 mg/mL (compound 63: 1.4 mg/mL)
[7] = FaSSIF, pH 6.5, fassif, Table 11, read-out: Solubility FaSSIF pH 6.5
[8] = FaSSIF, pH 6.5, fassif, fasting state fluid, ambient temperature, read-out: Solubility FaSSIF Ph 6.5
[9] = FeSSIF, pH 5, fessif, Table 11, read-out: Solubility FeSSIF pH 5.0
[10] = FeSSIF, pH 5, fessif, fed state fluid, ambient temperature, read-out: Solubility FeSSIF Ph 5.0
[11] = PBS buffer, pH 7.4, aqueous buffer, Table 11, read-out: Solubility PBS pH 7.4
[12] = PBS buffer, pH 7.4, aqueous buffer, ambient temperature, read-out: Solubility PBS Ph 7.4

| Precipitate formation, directly after addition [1] | Precipitate formation, 24 h [1] | Precipitate formation, directly after addition ([2]; after shaking) | Precipitate formation, directly after addition ([2]; initially, before shaking) | Precipitate formation, 5 min [2] | Precipitate formation, 15 min [2] | Precipitate formation, 30 min [2] | Precipitate formation, 60 min [2] | Precipitate formation, 24 h [2] | Amount of compound [3, 6] [mg/mL] | Amount of compound ([3]; 8 h) [mg/mL] | Amount of compound ([3]; 11 h) [mg/mL] | Amount of compound ([3]; 22 h) [mg/mL] | Amount of entacapone ([3]; 5 h) [mg/mL] | Amount of entacapone ([3]; 8 h) [mg/mL] | Amount of entacapone ([3]; 11 h) [mg/mL] | Amount of entacapone ([3]; 22 h) [mg/mL] | solubility at 10 min [4, 7] [µg/mL] | solubility at 10 min [4, 8] [µg/mL] | solubility at 10 min [4, 9] [µg/mL] | Structure (SMILES) | also measured |
| --- | --- | --- | --- | --- | --- | --- | --- | --- | --- | --- | --- | --- | --- | --- | --- | --- | --- | --- | --- | --- | --- |
| clear | clear | clear after shaking | First: white precipitate; | clear | clear | clear | clear | clear | 1.25 | 1.12 | 1.16 | 1.08 | 0.02 | 0.02 | 0.02 | 0.03 | 750 (≈ 1790 µM) | 750 (≈ 1790 µM) | 170 (≈ 405 µM) | CCCC(C)OC(=O)Oc1cc(/C=C(\C#N)C(=O)N(CC)CC)cc([N+](=O)[O-])c1O (stereo not shown) [Compound 63, Carbonic acid 5-((E)-2-cyano-2-diethylcarbamoyl-vinyl)-2-hydroxy-3-nitro-phenyl ester 1-methyl-butyl ester] | solubility at 10 min ([4]; 0.1 N HCl, pH 1, simulated gastric fluid, Table 11, maximum solubility, read-out: Solubility 0.1N HCl pH 1.0): 20 µg/mL (≈ 47.7 µM); solubility at 10 min ([4]; 0.1 N HCl, pH 1, simulated gastric fluid, ambient temperature, shaken 10 min, read-out: Solubility 0.1N HCl Ph 1.0): 20 µg/mL (≈ 47.7 µM); solubility at 10 min [4, 10]: 170 µg/mL (≈ 405 µM); solubility at 10 min [4, 11]: 1230 µg/mL (≈ 2930 µM); solubility at 10 min [4, 12]: 1230 µg/mL (≈ 2930 µM) |
| clear | clear | clear after shaking | First: white precipitate; | clear | clear | clear | clear | clear | 1.23 | 1.23 | 1.16 | 1.05 | 0.05 | 0.06 | 0.10 | 0.17 | 180 (≈ 390 µM) | 180 (≈ 390 µM) | 190 (≈ 412 µM) | CCCCC(CC)COC(=O)Oc1cc(/C=C(\C#N)C(=O)N(CC)CC)cc([N+](=O)[O-])c1O (stereo not shown) [Compound 15, Carbonic acid 5-((E)-2-cyano-2-diethylcarbamoyl-vinyl)-2-hydroxy-3-nitro-phenyl ester 2-ethyl-hexyl ester] | half-life at 5 μg/mL [5]: 1.48 h; solubility at 10 min [4, 10]: 190 µg/mL (≈ 412 µM); solubility at 10 min [4, 11]: 150 µg/mL (≈ 325 µM); solubility at 10 min [4, 12]: 150 µg/mL (≈ 325 µM) |
| clear | clear | clear after shaking | First: white precipitate; | clear | clear | clear | clear | clear | 1.21 | 1.36 | 1.40 | 1.23 | 0.03 | 0.05 | 0.07 | 0.08 | 150 (≈ 325 µM) | 150 (≈ 325 µM) | 150 (≈ 325 µM) | CCCCCCCCOC(=O)Oc1cc(/C=C(\C#N)C(=O)N(CC)CC)cc([N+](=O)[O-])c1O [Compound 35, Carbonic acid 5-((E)-2-cyano-2-diethylcarbamoyl-vinyl)-2-hydroxy-3-nitro-phenyl ester octyl ester] | half-life at 5 μg/mL [5]: 2 h; solubility at 10 min [4, 10]: 150 µg/mL (≈ 325 µM); solubility at 10 min [4, 11]: 130 µg/mL (≈ 282 µM); solubility at 10 min [4, 12]: 130 µg/mL (≈ 282 µM) |
| clear | clear | clear after shaking | First: white precipitate; | clear | clear | clear | clear | clear | 1.37 | 1.39 | 1.35 | 1.31 | 0.03 | 0.04 | 0.05 | 0.08 | 140 (≈ 314 µM) | 140 (≈ 314 µM) | 30 (≈ 67.3 µM) | CCN(CC)C(=O)/C(C#N)=C/c1cc(OC(=O)OCC2CCCCC2)c(O)c([N+](=O)[O-])c1 [Compound 57, Carbonic acid 5-((E)-2-cyano-2-diethylcarbamoyl-vinyl)-2-hydroxy-3-nitro-phenyl ester cyclohexylmethyl ester] | half-life at 5 μg/mL [5]: 0.302 h; solubility at 10 min [4, 10]: 30 µg/mL (≈ 67.3 µM); solubility at 10 min [4, 11]: 260 µg/mL (≈ 584 µM); solubility at 10 min [4, 12]: 260 µg/mL (≈ 584 µM) |
